Results on 27 compounds are retold here after patent publication US20260365671A1, “HETEROCYCLIC COMPOUND” (Takeda Pharmaceutical Company Limited, priority 2022, published 2026).

The target in one assay is T1, NLRP3 inflammasome (Homo sapiens, UniProt Q96P20).
T1 construct: IL-1beta HTRF
Nature of the assay: IL-1β TR-FRET assay (THP-1 cells differentiated to macrophages with IFN-γ, LPS primed, ATP activated; HTRF). It is filed as cell-based. To be noted: THP-1 macrophages, 50 ng/mL LPS priming, compound 30 min, 20 mM ATP 2 hours. The essentials: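 IL-1β release was read by HTRF after 16–24 h antibody incubation at room temperature, using supernatants from THP-1-derived macrophages (IFN-γ 25 ng/mL, LPS 50 ng/mL priming) given compound 30 min and then 20 mM ATP for 2 h. % inhibition versus concentration was fitted logistically for IC50.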

The test system of the next assay is NF-κB pathway. Nature of the assay: TNF-α assay (THP-1 cells differentiated to macrophages with IFN-γ, NF-κB pathway activated with LPS; ELISA). The class given is cell-based, Human. The settings on record: compound 30 min, 50 ng/mL LPS 3 hours. The essentials:
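TNF-α release measured by ELISA after 3 h stimulation with 50 ng/mL LPS, following 30 min compound pretreatment (37 °C, no FBS). Cells were THP-1 macrophages primed with IFN-γ 25 ng/mL for 24 h. IC50 derived by logistic curve fit.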

Setting [1] is: Homo sapiens, THP-1, THP-1 macrophages.

T1 sequence (Q96P20 whole entry): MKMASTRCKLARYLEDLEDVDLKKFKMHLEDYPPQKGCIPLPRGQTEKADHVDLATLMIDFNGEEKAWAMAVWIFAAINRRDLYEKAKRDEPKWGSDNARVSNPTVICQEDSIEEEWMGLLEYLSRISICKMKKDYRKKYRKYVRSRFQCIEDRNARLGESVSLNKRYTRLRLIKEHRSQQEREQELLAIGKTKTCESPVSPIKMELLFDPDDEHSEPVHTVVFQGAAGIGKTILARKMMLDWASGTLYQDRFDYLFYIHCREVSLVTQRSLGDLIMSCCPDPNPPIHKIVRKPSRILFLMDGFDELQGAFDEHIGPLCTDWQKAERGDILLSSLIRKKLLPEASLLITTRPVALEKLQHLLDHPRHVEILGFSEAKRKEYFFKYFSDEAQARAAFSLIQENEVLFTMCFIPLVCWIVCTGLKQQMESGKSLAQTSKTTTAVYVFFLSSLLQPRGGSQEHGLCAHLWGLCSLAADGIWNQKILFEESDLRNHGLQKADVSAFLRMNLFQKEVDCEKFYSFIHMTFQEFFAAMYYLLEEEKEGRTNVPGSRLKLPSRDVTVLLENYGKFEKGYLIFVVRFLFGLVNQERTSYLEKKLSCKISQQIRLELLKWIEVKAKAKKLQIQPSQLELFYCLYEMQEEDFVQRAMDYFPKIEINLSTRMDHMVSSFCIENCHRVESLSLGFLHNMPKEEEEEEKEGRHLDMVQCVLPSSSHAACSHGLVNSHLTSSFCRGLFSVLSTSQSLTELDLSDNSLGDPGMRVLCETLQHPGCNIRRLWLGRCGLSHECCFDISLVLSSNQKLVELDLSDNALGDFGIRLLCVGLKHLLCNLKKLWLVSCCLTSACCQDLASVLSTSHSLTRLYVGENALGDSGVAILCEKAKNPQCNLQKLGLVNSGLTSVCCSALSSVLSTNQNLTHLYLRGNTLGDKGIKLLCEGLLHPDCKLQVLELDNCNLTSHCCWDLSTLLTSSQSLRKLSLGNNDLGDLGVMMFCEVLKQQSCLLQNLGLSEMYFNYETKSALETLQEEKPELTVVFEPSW

Consider `Cc1cc(C)c(-n2cc3sc(N[C@@H]4C[C@H](C(F)F)CN(C)C4)nc3n2)c(O)c1` [Example 33, 2-(5-{[(3R,5S)-5-(difluoromethyl)-1-methylpiperidin-3-yl]amino}-2H-pyrazolo[3,4-d][1,3]thiazol-2-yl)-3,5-dimethylphenol], for which the IC50 (commonly the concentration that inhibits the measured activity by half) on NLRP3 inflammasome is 1.5 µM; with NF-κB pathway (setting [1]), over 10 µM.

Take `Cc1cc(C)c(-n2cc3sc(NC[C@@H](C)O)nc3n2)c(O)c1` [Example 34, 2-(5-{[(2R)-2-hydroxypropyl]amino}-2H-pyrazolo [3,4-d][1,3]thiazol-2-yl)-3,5-dimethylphenol]: the IC50 against NLRP3 inflammasome was 0.15 µM; in the assay with NF-κB pathway (setting [1]) it was over 10 µM.

For the compound `Cc1cc(C)c(-n2cc3sc(N[C@@H]4CCCN(CC(F)F)C4)nc3n2)c(O)c1` [Example 35, 2-(5-{[(3R)-1-(2,2-difluoroethyl)piperidin-3-yl]amino}-2H-pyrazolo[3,4-d][1,3]thiazol-2-yl)-3,5-dimethylphenol], the IC50 against NLRP3 inflammasome was 0.068 µM; with NF-κB pathway (setting [1]), over 10 µM.

For the compound `COCCN1CCC[C@@H](Nc2nc3nn(-c4c(C)cc(C)cc4O)cc3s2)C1` [Example 36, 2-(5-{[(3R)-1-(2-methoxyethyl)piperidin-3-yl]amino}-2H-pyrazolo[3,4-d][1,3]thiazol-2-yl)-3,5-dimethylphenol], the half-maximal inhibitory concentration (IC50) was 0.034 µM on NLRP3 inflammasome and over 30 µM with NF-κB pathway (setting [1]).

On to `COCCN(c1nc2nn(-c3c(C)cc(C)cc3O)cc2s1)[C@@H]1CCCNC1` [Example 37, 2-(5-{(2-methoxyethyl)[(3R)-piperidin-3-yl]amino}-2H-pyrazolo[3,4-d][1,3]thiazol-2-yl)-3,5-dimethylphenol], for which the figures for the IC50 on NLRP3 inflammasome and with NF-κB pathway (setting [1]) were 0.12 µM and over 30 µM, respectively.

Take `CC(=O)NCCNc1nc2nn(-c3c(C)cc(C)cc3O)cc2s1` [Example 38, N-(2-{[2-(2-hydroxy-4,6-dimethylphenyl)-2H-pyrazolo[3,4-d][1,3]thiazol-5-yl]amino}ethyl)acetamide]: the IC50 on NLRP3 inflammasome was 0.44 µM; with NF-κB pathway (setting [1]) it was over 30 µM.

Consider `CC(=O)NCCCCNc1nc2nn(-c3c(C)cc(C)cc3O)cc2s1` [Example 39], for which the values for the IC50 against NLRP3 inflammasome and in the assay on NF-κB pathway (setting [1]) were 0.39 µM and over 30 µM, respectively.

With `CO[C@H]1CN(C)C[C@@H]1Nc1nc2nn(-c3c(C)cc(C)cc3O)cc2s1` [Example 40, 2-(5-{[(3S,4S)-4-methoxy-1-methylpyrrolidin-3-yl]amino}-2H-pyrazolo[3,4-d][1,3]thiazol-2-yl)-3,5-dimethylphenol], the half-maximal inhibitory concentration (IC50) was 1.8 µM on NLRP3 inflammasome and over 30 µM in the assay with NF-κB pathway (setting [1]).

On to `Cc1cc(C)c(-n2cc3sc(N[C@@H]4C[C@@H](C(F)F)CN(C)C4)nc3n2)c(O)c1` [Example 41, 2-(5-{[(3R,5R)-5-(difluoromethyl)-1-methylpiperidin-3-yl]amino}-2H-pyrazolo[3,4-d][1,3]thiazol-2-yl)-3,5-dimethylphenol], for which the IC50 against NLRP3 inflammasome was 1.5 µM; in the assay on NF-κB pathway (setting [1]), over 10 µM.

Take `Cc1cc(C)c(-n2cc3sc(N[C@@H]4CCCN(CCF)C4)nc3n2)c(O)c1` [Example 42, 2-(5-{[(3R)-1-(2-fluoroethyl)piperidin-3-yl]amino}-2H-pyrazolo[3,4-d][1,3]thiazol-2-yl)-3,5-dimethylphenol]: the IC50 was 0.014 µM against NLRP3 inflammasome and over 30 µM with NF-κB pathway (setting [1]).

On to `COc1cc(C)c(-n2cc3sc(N[C@@H]4C[C@@H](F)CN(C)C4)nc3n2)c(O)c1` [Example 43, 2-(5-{[(3R,5R)-5-fluoro-1-methylpiperidin-3-yl]amino}-2H-pyrazolo[3,4-d][1,3]thiazol-2-yl)-5-methoxy-3-methylphenol], for which the IC50 at NLRP3 inflammasome is 0.028 µM; in the assay with NF-κB pathway (setting [1]) it was over 30 µM.

Regarding `Cc1cc(C)c(-n2cc3sc(N[C@@H]4CC[C@@H](O)C4)nc3n2)c(O)c1` [Example 44, 2-(5-{[(1R,3R)-3-hydroxycyclopentyl]amino}-2H-pyrazolo[3,4-d][1,3]thiazol-2-yl)-3,5-dimethyphenol or 2-(5-{[(1S,3S)-3-hydroxycyclopentyl]amino}-2H-pyrazolo[3,4-d][1,3]thiazol-2-yl)-3,5-dimethylphenol (tR1)], the IC50 against NLRP3 inflammasome was 0.24 µM; with NF-κB pathway (setting [1]) it was over 10 µM.

Consider `Cc1cc(C)c(-n2cc3sc(N[C@@H]4CC[C@@H](O)C4)nc3n2)c(O)c1` [Example 45, 2-(5-{[(1R,3R)-3-hydroxycyclopentyl]amino}-2H-pyrazolo[3,4-d][1,3]thiazol-2-yl)-3,5-dimethylphenol or 2-(5-{[(1S,3S)-3-hydroxycyclopentyl]amino}-2H-pyrazolo[3,4-d][1,3]thiazol-2-yl)-3,5-dimethylphenol (tR2)], for which the values for the IC50 on NLRP3 inflammasome and in the assay on NF-κB pathway (THP-1 macrophages) were 0.33 µM and over 10 µM, respectively.

On to `Cc1cc(C)c(-n2cc3sc(N[C@@H]4CC[C@H](O)C4)nc3n2)c(O)c1` [Example 46, 2-(5-{[(1R,3S)-3-hydroxycyclopentyl]amino}-2H-pyrazolo[3,4-d][1,3]thiazol-2-yl)-3,5-dimethylphenol or 2-(5-{[(1S,3R)-3-hydroxycyclopentyl]amino}-2H-pyrazolo[3,4-d][1,3]thiazol-2-yl)-3,5-dimethylphenyl (tR1)], for which the IC50 against NLRP3 inflammasome is 0.33 µM; in the assay with NF-κB pathway (setting [1]) it was over 10 µM.

As for `Cc1cc(C)c(-n2cc3sc(N[C@@H]4CC[C@H](O)C4)nc3n2)c(O)c1` [Example 47, 2-(5-{[(1R,3S)-3-hydroxycyclopentyl]amino}-2H-pyrazolo[3,4-d][1,3]thiazol-2-yl)-3,5-dimethylphenol or 2-(5-{[(1S,3R)-3-hydroxycyclopentyl]amino}-2H-pyrazolo[3,4-d][1,3]thiazol-2-yl)-3,5-dimethylphenol (tR2)], the IC50 was 1.2 µM at NLRP3 inflammasome and over 10 µM in the assay on NF-κB pathway (THP-1 macrophages).

Consider `COc1cc(C)cc(O)c1-n1cc2sc(N[C@@H]3C[C@@H](F)CN(C)C3)nc2n1` [Example 48, 2-(5-{[(3R,5R)-5-fluoro-1-methylpiperidin-3-yl]amino}-2H-pyrazolo[3,4-d][1,3]thiazol-2-yl)-3-methoxy-5-methylphenol], for which the IC50 against NLRP3 inflammasome was 0.13 µM; with NF-κB pathway (setting [1]), over 10 µM.

For `Cc1cc(C)c(-n2cc3sc(N(C)C)nc3n2)c(O)c1` [Example 49, 2-[5-(dimethylamino)-2H-pyrazolo[3,4-d][1,3]thiazol-2-yl]-3,5-dimethylphenol], the half-maximal inhibitory concentration (IC50) on NLRP3 inflammasome was 1.3 µM; with NF-κB pathway (setting [1]), over 30 µM.

For the compound `Cc1cc(O)c(-n2cc3sc(N[C@@H]4C[C@@H](F)CN(C)C4)nc3n2)c(OC(F)F)c1` [Example 50, 3-(difluoromethoxy)-2-(5-{[(3R,5R)-5-fluoro-1-methylpiperidin-3-yl]amino}-2H-pyrazolo[3,4-d][1,3]thiazol-2-yl)-5-methylphenol], the figures for the half-maximal inhibitory concentration (IC50) against NLRP3 inflammasome and with NF-κB pathway (setting [1]) were 0.012 µM and over 30 µM, respectively.

Turning to `CCN1C[C@H](F)C[C@@H](Nc2nc3nn(-c4c(O)cc(C)cc4OC(F)F)cc3s2)C1` [Example 51, 3-(difluoromethoxy)-2-(5-{[(3R,5R)-1-ethyl-5-fluoropiperidin-3-yl]amino}-2H-pyrazolo[3,4-d][1,3]thiazol-2-yl)-5-methylphenol], the IC50 against NLRP3 inflammasome is 0.0028 µM; in the assay on NF-κB pathway (setting [1]), over 30 µM.

Turning to `COCCN(c1nc2nn(-c3c(C)cc(C)cc3O)cc2s1)[C@@H]1CCCN(C)C1` [Example 52, 2-(5-{(2-methoxyethyl)[(3R)-1-methylpiperidin-3-yl]amino}-2H-pyrazolo[3,4-d][1,3]thiazol-2-yl)-3,5-dimethylphenol], the IC50 was 0.2 µM against NLRP3 inflammasome and over 10 µM with NF-κB pathway (setting [1]).

In the case of `Cc1cc(C)c(-n2cc3sc(NCCN(C)C)nc3n2)c(O)c1` [Example 53, 2-(5-{[2-(dimethylamino)ethyl]amino}-2H-pyrazolo[3,4-d][1,3]thiazol-2-yl)-3,5-dimethylphenol], the half-maximal inhibitory concentration (IC50) is 0.68 µM against NLRP3 inflammasome and over 30 µM in the assay with NF-κB pathway (setting [1]).

With `Cc1cc(C)c(-n2cc3sc(NCCN4CCOCC4)nc3n2)c(O)c1` [Example 54, 3,5-dimethyl-2-(5-{[2-(morpholin-4-yl)ethyl]amino}-2H-pyrazolo[3,4-d][1,3]thiazol-2-yl)phenol], the IC50 was 1.1 µM against NLRP3 inflammasome and over 30 µM with NF-κB pathway (setting [1]).

`Cc1cc(C)c(-n2cc3sc(NCCC(C)(C)O)nc3n2)c(O)c1` [Example 55, 2-{5-[(3-hydroxy-3-methylbutyl)amino]-2H-pyrazolo[3,4-d][1,3]thiazol-2-yl}-3,5-dimethylphenol]: the IC50 against NLRP3 inflammasome was 1.4 µM; in the assay with NF-κB pathway (setting [1]), over 10 µM.

For `CC(=O)NCCCNc1nc2nn(-c3c(C)cc(C)cc3O)cc2s1` [Example 56, N-(3-{[2-(2-hydroxy-4,6-dimethylphenyl)-2H-pyrazolo[3,4-d][1,3]thiazol-5-yl]amino}propyl) acetamide], the IC50 is 0.23 µM on NLRP3 inflammasome and over 30 µM in the assay on NF-κB pathway (setting [1]).

Consider `Cc1cc(C)c(-n2cc3sc(NC45CCC(O)(CC4)C5)nc3n2)c(O)c1` [Example 57, 4-{[2-(2-hydroxy-4,6-dimethylphenyl)-2H-pyrazolo[3,4-d][1,3]thiazol-5-yl]amino}bicyclo[2.2.1]heptan-1-ol], for which the IC50 on NLRP3 inflammasome is 0.13 µM; with NF-κB pathway (setting [1]), over 10 µM.

As to `Cc1cnc(-n2nc3nc(N[C@@H]4CCCN(C)C4)sc3c2C)c(O)c1` [Example 58, 5-methyl-2-(3-methyl-5-{[(3R)-1-methylpiperidin-3-yl]amino}-2H-pyrazolo[3,4-d][1,3]thiazol-2-yl)pyridin-3-ol], the IC50 against NLRP3 inflammasome was 2.6 µM; in the assay on NF-κB pathway (setting [1]) it was over 30 µM.

As for `CCc1cc(O)c(-n2cc3sc(N[C@@H]4C[C@@H](F)CN(C)C4)nc3n2)c(CC)c1` [Example 59, 3,5-diethyl-2-(5-{[(3R,5R)-5-fluoro-1-methylpiperidin-3-yl]amino}-2H-pyrazolo[3,4-d][1,3]thiazol-2-yl)phenol], the concentration for half-maximal inhibition (IC50) at NLRP3 inflammasome is 0.023 µM; in the assay on NF-κB pathway (setting [1]) it was over 30 µM.
